# Measured values as given in patent publication US20180369268A1, “METHODS FOR IDENTIFYING INHIBITORS OF "STIMULATOR OF INTERFERON GENE"- DEPENDENT INTERFERON PRODUCTION” (ADURO BIOTECH, INC., priority 2015, published 2018).
# pIC50: −log10 of the molar value.
# Molecular target: T1, STING in THP1 cells (HAQ allele) (Homo sapiens, UniProt Q86WV6, G230A/H232R/R293Q/R71H)
# T1 construct: host or cells: THP-1 dual reporter cells
# Experiment: THP-1 competition assay with STING agonist 2′3′-RR-(A)(A) (IRF-3 luciferase reporter)
# Type: cell-based
# Conditions: not given
# Procedure: The scaffold molecules and STING inhibitory compounds as described herein are assayed for their ability to inhibit the induction of STING dependent IFN-β production by an agonist compound in a competition assay. Relative induction of IRF-3 signaling in THP-1 cells (HAQ allele) was measured after stimulating the cells with a mix of a scaffold molecule (or any putative STING antagonist) titrated against a constant concentration of the STING agonist 2′3′-RR-(A)(A) in PB buffer (50 mM HEPES pH 7.5, 100 mM KCl, 3 mM MgCl2, 0.1 mM DTT, 85 mM sucrose, 0.2% BSA, 1 mM ATP, 0.1 mM GTP).
# One day prior to performing the assay, THP-1 dual (Invivogen) reporter cells were plated at 500,000 cells/mL in 200 μL per well in a 96-well plate and differentiated overnight with 3 μg/mL phorbal myristate acetate in RPMI medium 1640 (4.5 g/L D-glucose, 2.383 g/L HEPES, 300 mg/L L-glutamine, 1.5 g/L sodium bicarbonate, 110 mg/L sodium pyruvate, 10% heat-inactivated fetal bovine serum, 1× penicillin/streptomycin, 0.1 mg/mL normocin).
# On the day of the assay, the media was removed from the wells and replaced with 150 μL of fresh media. The titrations against 2′ 3′-RR-(A)(A) in a final volume of 100 μL were made as follows: two-fold dilutions (2,000 μM-3.9 μM) of the scaffold molecule into PB buffer containing 100 μM 2′3′-RR-(A)(A) for a final concentration of 50 μM 2′3′-RR-(A)(A). Compounds were tested in biological triplicate.
# The cells were then stimulated with 25 μL of each titration for 30 minutes at 37° C. in a CO2 incubator. After stimulating, the cells were washed twice, first with 100 μL and then 150 μL of fresh media. After washing, 150 μL of media was added to each well and the cells were incubated for 17 hours overnight at 37° C. in a CO2 incubator.
# To detect IRF-3 signaling, 50 μL of luciferase substrate (Invivogen QUANTI-Luc coelenterazine-based luminescence reagent reconstituted in 25 mL water) was added to 10 μL of supernatant from each well in a 96-well white opaque plate. Luminescence was measured using a SpectraMax M3 plate reader (Molecular Devices) and relative fold-induction was calculated as the values obtained from wells containing both the scaffold molecule and 2′3′-RR-(A)(A) divided by the values obtained from wells containing 2′3′-RR-(A)(A) alone. The average of the relative fold-induction was plotted against the log concentration of the antagonist. Agonist compounds 2′3′-RR-(G)(A) and RR-(A)(A) were run as controls in this assay (see FIGS. 2A and 2B).
# The results are provided for control compounds in FIGS. 2A and 2B and scaffold molecules in FIGS. […]: 2′3′-SR-(3′OTBS-A)(2′F-A) (FIG. 3A, Comp. 6a), SR-(2′F-A)(2′OTBS-A) (FIG. 3B, Comp. 18a), RR-(2,6-DAP)(2,6-DAP) (FIG. 3C, Comp. 23), RS-(2,6-DAP)(2,6-DAP) (FIG. 3D, Comp. 23a), (6-O-propargyl-G)(G) (FIG. 3E, Comp. 25), RR-(2′F-ibG)(2′F-ibG) (FIG. 3F, Comp. 32), RR-(2′F-C)(2′F-A) (FIG. 3G, Comp. 37), RS-(2′F-C)(2′F-A) (FIG. 3H, Comp. 37a), 3′2′-RR-(ibG)(BzA) (FIG. 3I, Comp. 42), 3′2′-SS-(G)(A) (FIG. 3J, Comp. 43), dithio-3′2′-(2′OTBS-G)(3′OTBS-A) isomer 1 (FIG. 3K, Comp. 49, isomer 1), dithio-3′2′-(2′OTBS-G)(3′OTBS-A) isomer 2 (FIG. 3L, Comp. 49, isomer 2), Beta-L-SS-(A)(A) (FIG. 3M, Comp. 48), Beta-L-RS-(A)(A) (FIG. 3N, Comp. 48a), and Beta-L-RR-(A)(A) (FIG. 3O, Comp. 48b). Isomer 1 and 2 of Compound 49 are different isomers, and are each one of compound 49a, 49b, 49c or 49d.
# T1 sequence (Q86WV6 whole entry R71H/G230A/H232R/R293Q): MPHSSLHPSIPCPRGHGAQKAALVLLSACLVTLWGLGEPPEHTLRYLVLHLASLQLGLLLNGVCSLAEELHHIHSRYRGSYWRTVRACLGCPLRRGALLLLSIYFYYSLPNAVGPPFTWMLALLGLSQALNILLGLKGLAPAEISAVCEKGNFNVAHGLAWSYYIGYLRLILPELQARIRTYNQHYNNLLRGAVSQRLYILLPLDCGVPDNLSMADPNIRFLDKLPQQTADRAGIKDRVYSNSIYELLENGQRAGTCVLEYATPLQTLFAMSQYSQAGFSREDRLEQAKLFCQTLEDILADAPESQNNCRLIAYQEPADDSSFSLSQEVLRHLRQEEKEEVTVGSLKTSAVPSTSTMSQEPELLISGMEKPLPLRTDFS
row,SMILES,pIC50
1,"CC(C)(C)[Si](C)(C)O[C@@H]1[C@@H]2OP(=O)(S)OC[C@H]3O[C@@H](n4cnc5c(N)ncnc54)[C@H](OP(=O)(S)OC[C@H]2O[C@H]1n1cnc2c(=O)[nH]c(N)nc21)[C@@H]3O[Si](C)(C)C(C)(C)C (single isomer, unassigned) [compound 49 isomer 1, dithio-3′2′-(2′OTBS-G)(3′OTBS-A) isomer 1]",3.96
2,"CC(C)(C)[Si](C)(C)O[C@@H]1[C@@H]2OP(=O)(S)OC[C@H]3O[C@@H](n4cnc5c(N)ncnc54)[C@H](OP(=O)(S)OC[C@H]2O[C@H]1n1cnc2c(=O)[nH]c(N)nc21)[C@@H]3O[Si](C)(C)C(C)(C)C (single isomer, unassigned) [compound 49 isomer 2, dithio-3′2′-(2′OTBS-G)(3′OTBS-A) isomer 2]",3.38
3,"CC(C)(C)[Si](C)(C)O[C@@H]1[C@@H]2O[P@](=O)(S)OC[C@H]3O[C@@H](n4cnc5c(N)ncnc54)[C@H](F)[C@@H]3O[P@@](=O)(S)OC[C@H]2O[C@H]1n1cnc2c(N)ncnc21 [Compound 18a, (2R,3R,3aR,5R,7aR,9R,10R,10aR,12S,14aR)-2,9-bis(6-amino-9H-purin-9-yl)-3-((tert-butyldimethylsilyl)oxy)-10-fluoro-5,12-dimercaptooctahydro-2H,7H-difuro[3,2-d:3′,2′-j][1,3,7,9]tetraoxa[2,8]diphosphacyclododecine 5,12-dioxide]",2.68

# Molecular target: T2, hSTING HAQ allele (Homo sapiens, UniProt Q86WV6, G230A/H232R/R293Q)
# T2 construct: DNA encoding amino acids 140-379 (amino acid numbering corresponding to Swiss Prot Q86WV6); 6xHIS-SUMO (with TEV site) (N, cleaved yes); made in house; host or cells: Rosetta2 (DE3) E. coli
# T2 sequence (Q86WV6 140-379 G230A/H232R/R293Q): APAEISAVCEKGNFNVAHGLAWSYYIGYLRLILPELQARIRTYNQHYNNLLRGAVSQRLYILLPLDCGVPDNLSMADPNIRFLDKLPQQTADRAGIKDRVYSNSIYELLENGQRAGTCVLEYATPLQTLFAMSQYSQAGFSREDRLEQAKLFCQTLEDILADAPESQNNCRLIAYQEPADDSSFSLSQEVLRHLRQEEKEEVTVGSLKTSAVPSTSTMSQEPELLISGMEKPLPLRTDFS
# Experiment: Differential scanning fluorometry (DSF) Tm shift with purified STING AA140-379
# Type: binding
# Conditions: DSF, ligand 1 mM, 1 mg/ml STING AA140-379; read-out: hSTING Tm Shift HAQ
# Description: DNA encoding amino acids 140-379 (amino acid numbering corresponding to Swiss Prot Q86WV6) was amplified from plasmids containing the full length sequence of human STING alleles via polymerase chain reaction with the following primers: forward […] (SEQ ID NO: 9) and reverse […] (SEQ ID NO: 10). STING variant alleles were assigned according to Yi, et al, (2013), PLoS One, 8(10), e77846 (DOI: 10.1371/journal.pone.0077846. PCR products were cloned into bacterial expression vector encoding a N-terminal hexa-histidine affinity tag (6×HIS) followed by a small ubiquitin-like modifier (SUMO) solubility sequence (Butt, et al, (2005) Protein expression and purification 43.1, 1-9) and tobacco etch virus protease cleavage site (TEV) using ligation independent cloning (Aslanidis, et al, (1990) Nucleic acids research, 18.20, 6069-6074).
# Plasmids encoding 6×HIS-SUMO-TEV-STING amino acids 140-379 were transformed into Rosetta2 (DE3) E. coli cells (EMD Millipore) for protein expression. Cells were grown in lysogeny broth at 37° C. until a […] absorbance of 0.6 was reached. Cells were then transferred to 18° C. and protein expression was induced overnight by the addition of isopropyl β-D-1-thiogalactopyranoside to the media at a concentration of 0.25 mM. Cells were harvested by centrifugation at 6,000 times gravity for 10 minutes. Cell pellets were re-suspended on ice in a buffer containing 50 mM Tris hydrochloride (Tris-HCl) pH 7.5, 500 mM sodium chloride (NaCl), 20 mM imidazole, 10% glycerol, 1 mM tris(2-carboxyethyl)phosphine hydrochloride (TCEP) and protease inhibitor tablet (Pierce) (Buffer A). Cells were lysed using an S-450D sonifier (Emmerson industrial) on ice. Cell lysate was centrifuged at 15,000 times gravity for 30 minutes at 4° C. Soluble material was applied to nickel-nitrilotriacetic acid (Ni-NTA) coupled Sepharose CL-6B (Qiagen) for 1 hour with gentle rocking at 4° C. After transfer to a gravity flow poly-prep column (Bio-Rad), resin was washed extensively in buffer A. Protein was eluted from the column in a buffer containing 20 mM Tris-HCl pH 7.5, 150 mM NaCl, 300 mM imidazole, 10% glycerol and 0.5 mM TCEP. To remove the 6×HIS-SUMO tag eluted protein was mixed with TEV protease (Sigma) at a ratio of 1:250 (w:w) and dialyzed overnight against a buffer containing 20 mM Tris-HCl pH 7.5, 150 mM NaCl, 5 mM imidazole, 10% glycerol and 0.5 mM TCEP. TEV protease and 6×HIS-SUMO tags were depleted by the addition of Ni-NTA resin (Qiagen) to the sample, purified STING amino acids 140-379 was collected by removal of the resin using a poly-prep column STING AA140-379 was concentrated with a 10,000 Dalton molecular weight cutoff centrifuge concentrator (EMD Millipore) to a final concentration of approximately 10 mg/ml. Protein was aliquoted, flash frozen in liquid nitrogen and stored at −80° C. until use.
# Differential scanning fluorometry (DSF) is a technique that measures the ability of ligands to bind to and stabilize purified proteins (Niesen, et al, (2007) Nature protocols 2.9, 2212-2221). The protein is heated in the presence of a dye that binds to and fluoresces in hydrophobic environments. The protein is thermally denatured by heating resulting in increased dye binding to the unfolded protein and fluorescence. The temperature midpoint (Tm) of a proteins denaturation is established by calculating the half maximal value of the denaturation curve. The temperature midpoint of the protein in the presence of a ligand is directly related to the affinity of the ligand for the protein and therefore its ability to stabilize the protein at higher temperatures.
# DSF was performed in a 20 μL reaction comprising 20 mM Tris-HCl pH 7.5, 150 mM NaCl, 1:500 dilution of SYPRO Orange (Life Technologies), 1 mg/ml purified STING AA140-379 protein and ligand at a concentration of 1 mM. Wild type hSTING, HAQ allele hSTING and/or REF allele hSTING were used with scaffold molecules of the invention as listed in Table 2.
row,SMILES,ΔTm at 1000 µM [°C]
1,"C#CCOc1nc(N)nc2c1ncn2[C@@H]1O[C@@H]2COP(=O)(O)O[C@H]3[C@@H](O)[C@H](n4cnc5c(OCC#C)nc(N)nc54)O[C@@H]3COP(=O)(O)O[C@H]2[C@H]1O [compound 26, (2R,3R,3aS,7aR,9R,10R,10aS,14aR)-2,9-bis(2-amino-6-(prop-2-yn-1-yloxy)-9H-purin-9-yl)-3,5,10,12-tetrahydroxyoctahydro-2H,7H-difuro[3,2-d: 3′,2′-j][1,3,7,9]tetraoxa[2,8]diphosphacyclododecine 5,12-dioxide]",5.4
2,"CC(C)C(=O)Nc1nc2c(ncn2[C@@H]2O[C@@H]3CO[P@@](=O)(S)O[C@H]4[C@@H](F)[C@H](n5cnc6c(=O)[nH]c(NC(=O)C(C)C)nc65)O[C@@H]4CO[P@](=O)(S)O[C@H]3[C@H]2F)c(=O)[nH]1 [Compound 32a, N,N′-(((2R,3R,3aR,5R,7aR,9R,10R,10aR,12S,14aR)-3,10-difluoro-5,12-dimercapto-5,12-dioxidooctahydro-2H,7H-difuro[3,2-d:3′,2′-j][1,3,7,9]tetraoxa[2,8]diphosphacyclododecine-2,9-diyl)bis(6-oxo-6,9-dihydro-1H-purine-9,2-diyl))bis(2-methylpropanamide)]",9.9
3,"CC(C)C(=O)Nc1nc2c(ncn2[C@@H]2O[C@@H]3CO[P@](=O)(S)O[C@@H]4[C@H](O)[C@@H](CO[P@@](=O)(S)O[C@H]3[C@H]2O)O[C@H]4n2cnc3c(NC(=O)c4ccccc4)ncnc32)c(=O)[nH]1 [Compound 42a, dithio-[RP, SP]-cyclic-[ibG(3′,5′)p-BzA(2′,5′)p]]",4.2

# Same assay, conditions: read-out: hSTING Tm Shift HAQ
row,SMILES,ΔTm at 1000 µM [°C]
1,"CC(C)(C)[Si](C)(C)O[C@H]1[C@H]2O[P@](=O)(S)OC[C@H]3O[C@@H](n4cnc5c(N)ncnc54)[C@H](F)[C@@H]3O[P@](=O)(S)OC[C@H]1O[C@H]2n1cnc2c(N)ncnc21 [Compound 6, dithio-[RP, RP]-cyclic-[3′OTBS-A(2′,5′)p-2′F-A(3′,5′)p]]",18.1
2,"CC(C)(C)[Si](C)(C)O[C@H]1[C@H]2O[P@](=O)(S)OC[C@H]3O[C@@H](n4cnc5c(N)nc(N)nc54)[C@H](O)[C@@H]3O[P@](=O)(S)OC[C@H]1O[C@H]2n1cnc2c(N)ncnc21 [Compound 12, dithio-[RP, RP]-cyclic-[A(2′,5′)p-2,6-DAP(3′,5′)p]]",14.3
3,"CC(C)(C)[Si](C)(C)O[C@H]1[C@H]2O[P@@](=O)(S)OC[C@H]3O[C@@H](n4cnc5c(N)nc(N)nc54)[C@H](O)[C@@H]3O[P@](=O)(S)OC[C@H]1O[C@H]2n1cnc2c(N)ncnc21 [Compound 12a, dithio-[SP, RP]-cyclic-[A(2′,5′)p-2,6-DAP(3′,5′)p]]",14.5
